Measurements: US9340577B2, “HLA binding motifs and peptides and their uses” (priority 1992, dated 2016)
No end group written: not given here.

Tests used:
Experiment in all cases: biochemical
DRB1*1101 = DRB1*1101 (Homo sapiens, UniProt P01903+P01911, A100R/A169T/A87E/I96F/K41T/L162R/M171V/P40S/Q125H/Q178H/Q39Y/Q99D/R42S/S66Y/T262R/V115G/W38E)
DRB1*1201 = DRB1*1201 (Homo sapiens, UniProt P01903+P01911, A100R/A169T/D57E/D86V/F55L/H45Y/K41T/L162R/M171V/P40S/Q125H/Q178H/Q39Y/Q99D/R42G/S66L/T262R/V114A/V67L/W38E/Y59H/Y61H/Y89S); assay type: binding
DRB5*0101 = DRB5*0101 (Homo sapiens, UniProt P01903+Q30154); conditions: Binding affinity DRB5 *0101
DRB1*0901 = DRB1*0901 (Homo sapiens, UniProt P01903+P01911, A100R/A103E/D57H/D86V/F55Y/F60I/F76Y/I96F/K127E/L162R/M171V/P40D/Q125H/Q99R/R33Q/R42F/S133A/S66N/T210M/V115G/W38K/Y107V/Y59G/Y89S); assay type: binding
DRB1*0802 = DRB1*0802 (Homo sapiens, UniProt P01903+P01911, A100R/A103L/A169T/F76Y/H45Y/I96F/K41T/L162R/M171V/P40S/Q125H/Q178H/Q39Y/Q99D/R218S/R42G/S66Y/V115G/W38E); assay type: binding
DRB1*1501 = DRB1*1501 (Homo sapiens, UniProt P01903+P01911); assay type: binding
DR7 (DRB1*0701) = DR7 (DRB1*0701) (Homo sapiens, UniProt P01903+P01911, A100R/A102G/A103Q/D57E/D86V/E43K/F76Y/K127E/L162R/M171V/P40G/Q125H/Q99D/R33Q/R42Y/R54Q/S133A/S66F/T210M/V115G/Y107V/Y59L/Y89S); assay type: binding
DRB1*1302 = DRB1*1302 (Homo sapiens, UniProt P01903+P01911, A100E/A169T/K41T/L162R/M171V/P40S/Q125H/Q178H/Q39Y/Q99D/R42S/S66N/T262R/V115G/W38E/Y61H); assay type: binding
DRB1*0405 = DRB1*0405 (Homo sapiens, UniProt P01903+P01911, A100R/A169T/D86S/F76Y/I96L/K127E/L162R/M171V/N62H/P40V/Q125Y/R42H/S133A/S149N/S66Y/V115G/V209L/W38E); assay type: binding
DRB4*0101 = DRB4*0101 (Homo sapiens, UniProt P01903+P13762, G164S); assay type: binding
DR1 (DRB1*0101) = DR1 (DRB1*0101) (Homo sapiens, UniProt P01903+P01911, A100R/D57E/F55L/F60I/F76Y/I96L/L162R/M171V/P40L/Q125E/R42F/V115G/Y59C); assay type: binding
DR4w4 (DRB1*0401) = DR4w4 (DRB1*0401) (Homo sapiens, UniProt P01903+P01911, A100K/A169T/F76Y/I96L/K127E/L162R/M171V/N62H/P40V/Q125Y/R42H/S133A/S149N/S66Y/V115G/V209L/W38E); assay type: binding

DRB1*1101, sequence (P01903 26-254 limits assumed, other chains not shown): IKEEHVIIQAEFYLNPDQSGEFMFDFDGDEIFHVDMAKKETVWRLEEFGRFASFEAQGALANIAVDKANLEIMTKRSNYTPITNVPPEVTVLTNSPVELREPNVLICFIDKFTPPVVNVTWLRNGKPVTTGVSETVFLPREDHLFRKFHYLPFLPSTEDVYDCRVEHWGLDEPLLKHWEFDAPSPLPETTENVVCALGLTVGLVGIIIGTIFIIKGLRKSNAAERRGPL
DRB1*1302, sequence (P01903 26-254 limits assumed, other chains not shown): as above

Molecule | IC50 (DRB1*1101; Binding affinity DRB1 *1101) [µM] | IC50 (DRB1*1201) [µM] | IC50 (DRB5*0101) [µM] | IC50 (DRB1*0901) [µM] | IC50 (DRB1*0802) [µM] | IC50 (DRB1*1501) [µM] | IC50 (DR7 (DRB1*0701)) [µM] | IC50 (DRB1*1302) [nM] | IC50 (DRB1*0405) [µM] | IC50 (DRB4*0101) [nM] | IC50 (DR1 (DRB1*0101)) [nM] | IC50 (DR4w4 (DRB1*0401)) [nM] | IC50 (DRB1*1101; […]) [µM]
CC[C@H](C)[C@H](NC(=O)[C@@H](NC(=O)[C@H](Cc1c[nH]cn1)NC(=O)[C@@H](N)CC(C)C)C(C)C)C(=O)N[C@@H](CO)C(=O)N[C@@H](CC(N)=O)C(=O)N[C@@H](CC(=O)O)C(=O)N[C@H](C(=O)N[C@@H](CS)C(=O)N[C@@H](C)C(=O)N[C@@H](CCC(N)=O)C(=O)N[C@H](C(=O)N[C@@H](Cc1c[nH]cn1)C(=O)N1CCC[C@H]1C(=O)N[C@@H](CCC(N)=O)C(=O)O)C(C)C)C(C)C [Peptide 68.0077] | > 20 | > 20 | > 20 | > 20 | > 20 | > 20 |  |  |  |  |  |  | 
CC[C@H](C)[C@H](NC(=O)[C@H](CO)NC(=O)[C@H](CO)NC(=O)[C@H](CC(=O)O)NC(=O)[C@H](C)NC(=O)[C@H](CC(N)=O)NC(=O)[C@@H](NC(=O)[C@H](Cc1ccc(O)cc1)NC(=O)[C@H](C)NC(=O)[C@@H](NC(=O)CNC(=O)[C@H](CCCNC(=N)N)NC(=O)[C@@H](N)CCC(=O)O)C(C)C)[C@@H](C)CC)C(=O)N[C@@H](CCC(=O)O)C(=O)NCC(=O)O [Peptide 68.0109] | > 20 | > 20 |  | > 20 | > 20 | > 20 | > 20 |  |  |  |  |  | 
CSCC[C@H](NC(=O)[C@H](CCC(=O)O)NC(=O)[C@H](CCC(N)=O)NC(=O)[C@@H]1CCCN1)C(=O)N[C@@H](CCCCN)C(=O)N[C@H](C(=O)N[C@@H](Cc1ccc(O)cc1)C(=O)N[C@@H](CO)C(=O)N[C@H](C(=O)N[C@@H](CO)C(=O)N[C@@H](Cc1ccccc1)C(=O)N[C@@H](CC(=O)O)C(=O)N[C@@H](CO)C(=O)N[C@@H](CC(C)C)C(=O)N[C@@H](Cc1ccccc1)C(=O)O)C(C)C)[C@@H](C)O [Peptide 68.0127] | > 20 | 5.35 |  |  | > 20 |  |  | > 20000 |  |  |  |  | 
CC(C)C[C@H](NC(=O)[C@H](CCC(N)=O)NC(=O)[C@H](CC(=O)O)NC(=O)[C@H](CCC(=O)O)NC(=O)[C@H](CO)NC(=O)[C@H](CC(C)C)NC(=O)[C@@H]1CCCN1C(=O)[C@@H](NC(=O)[C@@H](N)[C@@H](C)O)C(C)C)C(=O)N[C@@H](CC(C)C)C(=O)N[C@@H](Cc1ccc(O)cc1)C(=O)N[C@@H](CC(C)C)C(=O)N1CCC[C@H]1C(=O)N[C@@H](Cc1ccccc1)C(=O)N[C@@H](CCCNC(=N)N)C(=O)O [Peptide 68.0147] | > 20 | 9.69 | > 20 | > 20 | > 20 | > 20 |  |  |  |  |  |  | 
CC[C@H](C)[C@H](NC(=O)[C@H](CCCCN)NC(=O)[C@H](CCSC)NC(=O)[C@H](CC(=O)O)NC(=O)[C@H](CCCNC(=N)N)NC(=O)[C@H](CCC(=O)O)NC(=O)[C@H](CC(C)C)NC(=O)[C@H](CCCCN)NC(=O)[C@H](Cc1ccccc1)NC(=O)[C@@H](N)Cc1ccccc1)C(=O)N[C@@H](CC(N)=O)C(=O)N[C@@H](CS)C(=O)N[C@@H](CO)C(=O)NCC(=O)N[C@@H](CCCCN)C(=O)O [Peptide 68.0168] |  | 6.94 |  | > 20 |  | > 20 | > 20 |  |  |  |  |  | 
CWNYIDDNLRNALDG [Peptide 90.0041] | > 20 | > 20 | > 20 | > 20 | > 20 | > 20 | > 20 | > 20000 | > 20 | > 20000 | > 20000 |  | 
DPRWPYLHSRLVVFH [Peptide 89.0113] | 5.14 | 5.93 |  | 5.4 | 19.8 |  | 0.09 | 13 | 6.1 | 98 |  | 138 | 
ELQMALKGLAQSKYN [Peptide 90.0005] | 0.064 | 0.041 | 0.475 | 0.348 | 0.127 | > 20 | > 20 | 10000 | 5.95 |  | 81 | 2220 | 
ESVFSSDEISFAGIV [Peptide 90.0195] | > 20 | > 20 | > 20 | 0.672 | > 20 | 1.98 | 0.609 | 235 | 8.58 |  | 2380 | 33 | 
GVYYIKDGDTTYYVQ [Peptide 90.0216] | > 20 | 5.74 | > 20 | 1.62 | 5.62 | > 20 |  |  | 7.09 | > 20000 | 1550 | 2480 | 
ITFLGALKSFLKGTP [Peptide 89.0034] |  | 0.044 | 0.019 | 7.62 |  | 0.128 | 2.96 | > 20000 |  | 1500 | 18 |  | 
IWEVHMENESIYCPD [Peptide 90.0237] | > 20 | > 20 | > 20 | 5.49 | > 20 | > 20 | > 20 | 1960 | > 20 |  | 1780 | 3380 | 
IYIIEEDTCTMVTGK [Peptide 90.0204] | 11.9 | 16.5 | > 20 | > 20 | > 20 | 18.7 | 8.19 | 994 | 18.7 |  | 2230 | 151 | 
LNVLKTSNAKAAMLA [Peptide 89.0003] | 0.198 | 0.531 | 0.768 | 0.197 |  |  | 0.02 | 8.9 | 2.38 | 509 | 33 | 3.4 | 
LSHVKIPVVYRLVWD [Peptide 90.0020] |  | 0.1 | 1.34 | 0.469 | 3.57 |  |  | 329 | 0.525 | 22 | 79 | 3950 | 
MAIFGVNPTVAEGFK [Peptide 89.0081] | 0.041 | 1.2 |  | 1.56 | 1.09 |  |  | 35 | 0.036 | 426 |  | 75 | 
PEWIDRLTVLQHSFN [Peptide 89.0070] | 2.64 | 0.203 | > 20 | 4.15 |  | 0.982 | > 20 |  | 0.079 | 13 | 2610 |  | 
PRWLCAGALVLAGGF [Peptide 68.0083] | > 20 | 4.6 | > 20 |  | > 20 |  |  | > 20000 |  |  |  |  | 
SEIYIIEETTCTLVA [Peptide 90.0250] | > 20 | > 20 | > 20 | > 20 | > 20 |  | > 20 | 399 | 8.08 | 231 |  |  | 
SLSLGFLFLLFFWLD [Peptide 68.0022] |  | 1.22 | > 20 | > 20 | > 20 |  | > 20 |  |  | > 20000 |  |  | > 20
VSFLSALKLFLKGVP [Peptide 89.0053] | 0.064 | 0.082 |  | 2.12 | 0.29 | 1.45 |  |  |  | 23 | 23 | 1570 | 
